Measured values from patent publication US7846970B2, “Hydroxycitric acid derivatives and skin external preparations containing the same” (Showa Denko K.K., priority 2004, dated 2010).

What was measured:
[1] = test system: Human white preadipocytes; assay: Test (2) of use in combination with caffeine and the like, triglyceride accumulation; format: cell-based; settings: 50 μM, 4 days
Procedure: (§1) After differentiation into adipocytes had been observed, the culture medium was replaced with one that contained 50 μM of (b), or 100 μM of (i), or 50 μM of (j), or 50 μM and 100 μM of (b) and (i) respectively, or 50 μM and 50 μM of (b) and (j) respectively. The incubation was continued for another 4 days. The control was incubated using a culture medium that contained no test articles.

[2] = test system: Human white preadipocytes; assay: Cell survival rate (Test Example 6); format: cell-based; settings: 4 days, 50 μM
Procedure: as §1

[3] = test system: Human white preadipocytes
Procedure: (§4) Human white preadipocytes (available from Zen-Bio Inc.) were disseminated in two T-25 flasks and were incubated at 37° C. and 5% CO2 using a white preadipocyte culture medium (PM-1, available from Zen-Bio Inc.). After several days, microscopic observation confirmed that the cells had been confluent, and the medium was replaced with a human white preadipocyte differentiation medium (DM-1, available from Zen-Bio Inc.). After three days, the differentiation medium was changed to a white adipocyte medium (AM-1, available from Zen-Bio Inc.). Incubation was continued while renewing half of the white adipocyte medium every three days.
(§5) After differentiation into adipocytes had been observed, the culture media in the flasks were each replaced with one that contained 1 mM of the test article (a) or 0.05 mM of the test article (b). The incubation was continued for another 5 days.
(§6) After 5 days of incubation, the cells were released from the flask bottom by adding trypsin and were collected by centrifugation (at 1,000 rpm for 5 minutes). The cells collected were washed two times with Dulbecco's PBS (−), and were transferred to 1.5 ml tubes, followed by freezing and thawing. […]
(§7) The test article in the extract was determined by LC/MS, and the protein in the extract was determined by the Lowry method as described in Test Example 1.

[4] = Skin permeation test (Test Example 1); format: in vitro ADME, minipig
Procedure: The above test articles, each 0.5% by mass, were dissolved separately in Dulbecco's PBS (−).
2-cm square skin pieces of minipig (Charles River Laboratories Inc. (United States of America)) were placed in the Netwell (manufactured by Corning Incorporated), and assay rings (Teflon® rings with a center opening) on which a silicon sealant had been applied were pressed and fixed to the epidermis of the skin. Subsequently, 2 ml of a skin culture medium (TOYOBO CO., LTD.) was added to a multiwell plate, and the Netwell was set such that skin lower portions would be soaked. Each of the test article solutions, 0.1 ml, was slowly poured into the opening of assay ring; when no leakage was confirmed, the units were sealed with multiplate seals and were allowed to stand in an incubator at 37° C. and 5% carbon dioxide.
After 4 hours, the test article solutions on the skin pieces were pipetted. The skin pieces were recovered from the Netwell, and distilled water in a washing bottle was poured thereover for washing. The assay rings were detached, and the central portions that had contacted with the solution were punched out with an 8 mm biopsy punch. The excised skin pieces were transferred to 1.5 ml tubes, and 1 ml of 0.5% trypsin solution was added to each tube. The trypsin solution was caused to permeate the skin piece for a day and a night at 4° C.
Next day, the trypsin solution was removed, and the skin pieces were washed three times each with 1 ml of distilled water and were heated in an incubator at 37° C. for 5 minutes, resulting in release of the epidermis. The epidermis that had been released and been floating was peeled with tweezers to separate the skin piece into the epidermis and the dermis. The epidermis and dermis were separately transferred to new 1.5 ml tubes and were heated in an incubator at 37° C. for 30 minutes.
Thereafter, the epidermis and the dermis were fed with 0.1 ml and 0.5 ml of distilled water, respectively, followed by freezing and thawing. […] Thus, a tissue extract was obtained.
400 μl of the reagent 4 was added to a sample tube containing 20 μl of the sample solution or the standard sample solution, followed by mixing. The mixture was allowed to stand at room temperature for at least 15 minutes. Thereafter, 40 μl of the reagent 3 was added and mixed together, and the mixture was allowed to stand at room temperature for at least 30 minutes. The absorbance at 750 nm was measured with a spectrophotometer, and the protein concentration in the sample solution was determined using a calibration curve obtained with the standard sample.

Mouse 3T3-F442A cells [5] = assay: Triglyceride accumulation test (1), oil red staining; format: cell-based; settings: 100 μM, 4 days, differentiated 3T3-F442A adipocytes
Procedure: Mouse 3T3-F442A cells (available from DAINIPPON PHARMACEUTICAL CO., LTD.) were disseminated on a 96-well microplate and were incubated at 37° C. and 5% CO2 over a period of 2 weeks using a DMEM culture medium (available from Invitrogen) containing 10% by mass of FCS.
(§2) After differentiation of most cells into adipocytes had been observed with a microscope, the culture medium was replaced with one that contained 100 μM of any one of the test articles (a) to (c). The incubation was continued for another 4 days. The control was incubated using a culture medium that contained no test articles.
After 4 days of incubation, the cells were washed three times with Dulbecco's PBS (−). The triglyceride accumulated in the cells was determined by oil red staining.

[6] = test system: Human white preadipocytes; assay: Triglyceride accumulation test (2), oil red staining; format: cell-based; settings: 4 days
Procedure: as §2, with “or 1 mM” for “of any one”, “article (a), or 10 μM, 25 μM or 50 μM of the test article (b).” for “articles (a) to (c).”
(§3) After 4 days of incubation, the cells were washed three times with Dulbecco's PBS (−). The triglyceride accumulated in the cells was determined by oil red staining. The cell survival rate was measured by a calorimetric method (570 nm) using alamar blue reagent (manufactured by Molecular Probe).

[7] = test system: Human white preadipocytes; assay: Cell survival rate, alamar blue (Test Example 3); format: cell-based; settings: 4 days
Procedure: as §2, with “or 1 mM” for “of any one”, “article (a), or 10 μM, 25 μM or 50 μM of the test article (b).” for “articles (a) to (c).”
as §3

Mouse 3T3-F442A cells [8] = assay: Triglyceride accumulation test (3): lowest concentration at which TG/cell survival ratio is not more than 80; format: cell-based; settings: lowest tested concentration with TG/cell survival ratio not more than 80 (control 100); 4 days
Procedure: Likewise in Test Example 2, mouse 3T3-F442A cells (available from DAINIPPON PHARMACEUTICAL CO., LTD.) were disseminated on a 96-well microplate and were incubated at 37° C. and 5% CO2 over a period of 2 weeks using a DMEM culture medium (available from Invitrogen) containing 10% by mass of FCS.
as §2, with “contained” for “contained 100 μM of”, “(a), (b) and (d)” for “(a)”, “(h) in an amount of 40 μM, 50 μM, 100 μM, 150 μM, 200 μM, 300 μM, 400 μM, 500 μM or […].” for “(c).”
After 4 days of incubation, the cells were washed three times with Dulbecco's PBS (−). The triglyceride accumulated in the cells, and the cell survival rate were measured in similar manners as in Test Example 3.

[9] = test system: Human white preadipocytes; assay: Test for confirmation of breakdown of hydroxycitric acid derivative (amounts in cell extract, LC/MS); settings: 1 mM test article, 5 days, human adipocytes
Procedure: as §4, §5, §6, §7

Mouse 3T3-F442A cells [10] = assay: Test (1) of use in combination with caffeine, triglyceride accumulation; format: cell-based; settings: 0.05 mM (b) alone, which is the control (100%); 4 days
Procedure: Mouse 3T3-F442A cells were incubated in a similar manner as in Test Example 2. After differentiation into adipocytes had been observed, the culture medium was replaced with one that contained 0.05 mM and 0.1 mM of the test article (b) and the test article (i), respectively. The incubation was continued for another 4 days. The control was incubated using a culture medium that contained 0.05 mM of the test article (b).
After 4 days of incubation, the triglyceride accumulated in the cells was determined in a similar manner as in Test Example 2.

[11] = dermis, test article 0.5% by mass in Dulbecco's PBS (-), 0.1 ml, 4 hours, 37°C
[12] = epidermis, test article 0.5% by mass in Dulbecco's PBS (-), 0.1 ml, 4 hours, 37°C

## C[N+](C)(C)C[C@H](O)CC(=O)[O-].Cl [(j), L-carnitine hydrochloride, reference compound]
[1]
  (1/2) × 100 (triglyceride amount / cell survival rate): 91
  Accumulated triglyceride amount (% relative to control): 1: 93 % relative to control
[2]
  Cell survival rate (% relative to control): 2: 102 % relative to control

## CCCCCCCCCCCCCCCC(=O)OC(CC(=O)O)(C(=O)O)C(O)C(=O)O (centres unmarked) [hydroxycitric acid-2-palmitate]
[3]
  Breakdown within adipocytes (in words): broken down within adipocytes to generate hydroxycitric acid

## Hydroxycitric acid calcium salt [(a), reference compound]
[4]; [11]
  Determined value: amount of hydroxycitric acid in dermis: 0.2 nmol/mg skin protein
[4]; [12]
  Determined value: amount of hydroxycitric acid in epidermis: 0.4 nmol/mg skin protein
Mouse 3T3-F442A cells [5]
  Accumulated triglyceride amount (% relative to control): 98 % relative to control
[6]; 100 μM
  (1/2) × 100 (triglyceride amount / cell survival rate): 98
  Accumulated triglyceride amount (% relative to control): 1: 86 % relative to control
[6]; 1 mM
  (1/2) × 100 (triglyceride amount / cell survival rate): 85
  Accumulated triglyceride amount (% relative to control): 1: 80 % relative to control
[7]; 100 μM
  Cell survival rate (% relative to control): 2: 88 % relative to control
[7]; 1 mM
  Cell survival rate (% relative to control): 2: 94 % relative to control
Mouse 3T3-F442A cells [8]
  Concentration for 20% reduction of TG amount relative to control: 1e+06 µM
[9]
  Determined value: amount of hydroxycitric acid in cell extract: 0.6 nmol/mg protein

## Hydroxycitric acid monomethyl ester-2-palmitate sodium salt [(c)]
Mouse 3T3-F442A cells [5]
  Accumulated triglyceride amount (% relative to control): 84 % relative to control

## Hydroxycitric acid-2-behenate sodium salt [(h)]
Mouse 3T3-F442A cells [8]
  Concentration for 20% reduction of TG amount relative to control: 40 µM

## Hydroxycitric acid-2-caprate sodium salt [(e)]
Mouse 3T3-F442A cells [8]
  Concentration for 20% reduction of TG amount relative to control: 200 µM

## Hydroxycitric acid-2-laurate sodium salt [(f)]
Mouse 3T3-F442A cells [8]
  Concentration for 20% reduction of TG amount relative to control: 150 µM

## Hydroxycitric acid-2-myristate sodium salt [(g)]
Mouse 3T3-F442A cells [8]
  Concentration for 20% reduction of TG amount relative to control: 100 µM

## Hydroxycitric acid-2-octanoate sodium salt [(d)]
Mouse 3T3-F442A cells [8]
  Concentration for 20% reduction of TG amount relative to control: 200 µM

## Hydroxycitric acid-2-palmitate sodium salt [(b)]
[4]; [11]
  Determined value: amount of hydroxycitric acid-2-palmitate in dermis: 3.8 nmol/mg skin protein
[4]; [12]
  Determined value: amount of hydroxycitric acid-2-palmitate in epidermis: 3.4 nmol/mg skin protein
[4]; minipig skin, compared with (a)
  Skin permeation (in words): can permeate the skin deeper into the dermis layer than hydroxycitric acid calcium salt (a)
Mouse 3T3-F442A cells [5]
  Accumulated triglyceride amount (% relative to control): 52 % relative to control
[6]; 10 μM
  (1/2) × 100 (triglyceride amount / cell survival rate): 78
  Accumulated triglyceride amount (% relative to control): 1: 78 % relative to control
[6]; 25 μM
  (1/2) × 100 (triglyceride amount / cell survival rate): 71
  Accumulated triglyceride amount (% relative to control): 1: 72 % relative to control
[6]; 50 μM
  (1/2) × 100 (triglyceride amount / cell survival rate): 66
  Accumulated triglyceride amount (% relative to control): 1: 65 % relative to control
[7]; 10 μM
  Cell survival rate (% relative to control): 2: 100 % relative to control
[7]; 25 μM
  Cell survival rate (% relative to control): 2: 101 % relative to control
[7]; 50 μM
  Cell survival rate (% relative to control): 2: 98 % relative to control
Mouse 3T3-F442A cells [8]
  Concentration for 20% reduction of TG amount relative to control: 50 µM
Mouse 3T3-F442A cells [10]
  Accumulated triglyceride amount (% relative to control): 100 % relative to control
[1]
  (1/2) × 100 (triglyceride amount / cell survival rate): 75
  Accumulated triglyceride amount (% relative to control): 1: 75 % relative to control
